In BindingDB's records for doi:10.1111/cbdd.12189 (Tianjin Medical University, 2013):

What was measured:
[1] = target: T1, Tyrosine-protein phosphatase non-receptor type 1 (Homo sapiens, UniProt P18031); experiment: PTP activity assay; conditions: pH 6; 37 °C
T1 sequence (P18031 whole entry): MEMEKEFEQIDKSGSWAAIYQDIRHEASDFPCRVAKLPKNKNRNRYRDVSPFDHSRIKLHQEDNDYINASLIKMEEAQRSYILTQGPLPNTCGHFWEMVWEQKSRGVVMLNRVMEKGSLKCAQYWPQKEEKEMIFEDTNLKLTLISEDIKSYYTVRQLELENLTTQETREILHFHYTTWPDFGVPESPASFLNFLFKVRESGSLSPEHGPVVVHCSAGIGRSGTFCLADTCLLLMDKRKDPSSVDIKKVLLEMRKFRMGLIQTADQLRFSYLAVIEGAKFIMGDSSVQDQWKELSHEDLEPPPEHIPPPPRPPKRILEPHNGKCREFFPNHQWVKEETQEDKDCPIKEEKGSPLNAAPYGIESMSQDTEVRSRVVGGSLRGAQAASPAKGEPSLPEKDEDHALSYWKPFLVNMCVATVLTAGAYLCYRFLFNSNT
Description: (§1) The enzyme activity was measured using p-nitrophenyl phosphate (pNPP) as substrate in a 96-well plate and by detecting the absorbance at 405 nm for the amount of produced p-nitrophenol. Purified human recombinant PTP1B or TCPTP (0.05 µg) in 50 µL buffer containing 50 mM citrate (pH 6.0), 0.1 M NaCl, 1 mM EDTA, and 1 mM DTT and test compounds were added to each well. Each mixture was pre-incubated for 15 min at room temperature, followed by the addition of 50 µL of reaction buffer containing 2 mM pNPP and incubated at 37°C for 30 min.

[2] = target: T2, Tyrosine-protein phosphatase non-receptor type 2 (Homo sapiens, UniProt P17706); experiment: PTP activity assay; conditions: pH 6; 37 °C
T2 sequence (P17706 whole entry): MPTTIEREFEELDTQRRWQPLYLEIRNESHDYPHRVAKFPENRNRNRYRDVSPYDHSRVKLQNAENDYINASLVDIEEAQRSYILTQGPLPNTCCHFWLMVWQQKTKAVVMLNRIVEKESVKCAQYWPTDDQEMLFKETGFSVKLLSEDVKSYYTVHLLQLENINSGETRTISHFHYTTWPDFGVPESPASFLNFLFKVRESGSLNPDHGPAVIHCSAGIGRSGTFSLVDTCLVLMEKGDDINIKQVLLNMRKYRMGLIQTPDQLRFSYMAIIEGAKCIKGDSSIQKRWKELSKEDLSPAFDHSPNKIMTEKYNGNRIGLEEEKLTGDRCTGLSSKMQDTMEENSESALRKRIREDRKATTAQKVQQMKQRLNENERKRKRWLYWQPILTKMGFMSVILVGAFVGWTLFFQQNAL
Description: as §1

Row | IC50 [1] | IC50 [2] | Structure (SMILES)
1 | 4.1 µM | 18.7 µM | O=C1NC(=O)/C(=C/c2ccccc2OCc2ccc(Cl)cc2Cl)N1 [(5Z)‐5‐({2‐[(2,4‐ dichlorophenyl)methoxy]phenyl}methylidene)imidazolidine‐ 2,4‐dione (comp#c)]
2 | 37.4 µM | 36.8 µM | O=C1NC(=O)/C(=C/c2ccccc2OCc2cccc(Cl)c2)N1 [(5Z)‐5‐({2‐[(3‐ chlorophenyl)methoxy]phenyl}methylidene)imidazolidine‐ 2,4‐dione (comp#a)]
3 | 4.6 µM | 35.9 µM | O=C1NC(=O)/C(=C/c2ccccc2OCc2ccc(Cl)cc2)N1 [(5Z)‐5‐({2‐[(4‐ chlorophenyl)methoxy]phenyl}methylidene)imidazolidine‐ 2,4‐dione (comp#b)]
4 | 4.1 µM | > 138 µM | O=C1NC(=O)/C(=C/c2cccc(OCc3ccc(Cl)cc3Cl)c2)N1 [(5Z)‐5‐({3‐[(2,4‐ dichlorophenyl)methoxy]phenyl}methylidene)imidazolidine‐ 2,4‐dione (comp#h)]
5 | 2.8 µM | 33.6 µM | O=C1NC(=O)/C(=C/c2cccc(OCc3ccc(Cl)c(Cl)c3)c2)N1 [(5Z)‐5‐({3‐[(3,4‐ dichlorophenyl)methoxy]phenyl}methylidene)imidazolidine‐ 2,4‐dione (comp#i)]
6 | 40.8 µM | 137 µM | O=C1NC(=O)/C(=C/c2cccc(OCc3ccc(Cl)cc3)c2)N1 [(5Z)‐5‐({3‐[(4‐ chlorophenyl)methoxy]phenyl}methylidene)imidazolidine‐ 2,4‐dione (comp#g)]
7 |  | 11.6 µM | O=C1NC(=O)/C(=C/c2ccc(OCc3ccc(Cl)cc3Cl)cc2)N1 [(5Z)‐5‐({4‐[(2,4‐ dichlorophenyl)methoxy]phenyl}methylidene)imidazolidine‐ 2,4‐dione (comp#j)]
8 |  | 33.9 µM | O=C1NC(=O)/C(=C/c2ccc(OCc3ccc(Cl)c(Cl)c3)cc2)N1 [(5Z)‐5‐({4‐[(3,4‐ dichlorophenyl)methoxy]phenyl}methylidene)imidazolidine‐ 2,4‐dione (comp#k)]
9 | 3.4 µM | 31.4 µM | COc1ccc(COc2ccc(/C=C3\NC(=O)NC3=O)cc2)cc1 [(5Z)‐5‐({4‐[(4‐ methoxyphenyl)methoxy]phenyl}methylidene)imidazolidine‐ 2,4‐dione (comp#l)]
10 | > 170 µM | > 170 µM | O=C1NC(=O)/C(=C/c2cccc(OCc3ccccc3)c2)N1 [(5Z)‐5‐{[3‐ (benzyloxy)phenyl]methylidene}imidazolidine‐2,4‐ dione (comp#d)]
11 | 11.4 µM | 44.1 µM | O=C1NC(=O)/C(=C/c2cccc(OCCc3ccccc3)c2)N1 [(5Z)‐5‐{[3‐(2‐ phenylethoxy)phenyl]methylidene}imidazolidine‐2,4‐ dione (comp#e)]
12 | 41.9 µM | 22.3 µM | O=C1NC(=O)/C(=C/c2cccc(OCCCc3ccccc3)c2)N1 [(5Z)‐5‐{[3‐(3‐ phenylpropoxy)phenyl]methylidene}imidazolidine‐2,4‐ dione (comp#f)]
